# Measured values as given in patent publication US5952390A, “10-substituted 1,8-dihydroxy-9(10H) anthracenone pharmaceuticals” (Teva Pharmaceutical Industries Ltd., priority 1998, dated 1999).
# Assay: Lipid peroxidation in bovine brain phospholipid liposomes
# Settings: Table I (Addendum); n = 3 or more; standard errors average 20%; read-out: LPO IC50
# Procedure: Phospholipids were prepared essentially as described by Gutteridge, J. M. C., "The Measurement of Malondialdehyde in Peroxidised Ox-Brain Phospholipid Liposomes", Anal. Biochem., 82, 76-82 (1977). Bovine brain, cooled on ice, was freed from blood vessels and washed repeatedly with 0.15M NaCl, pH 7.4. It was cut to pieces and then macerated with an ultra-turrax, passed through a close-meshed sieve, and extracted four times with four times the volume of acetone. The extraction mixture was filtered by suction to remove the acetone, the residue was dried under vacuum, and then repeatedly extracted with petroleum ether (40-60) using twice the volume of the original brain homogenate. The combined extracts were filtered, dried at 45° C., and dissolved in ether (one fifth of the original brain volume). The mixture was treated with five times the volume of acetone, and the resulting precipitate was collected by suction-filtration, dried and stored under N2 at -20° C. in the dark. Bovine brain phospholipids were weighed into glass tubes and shaken in a vortex mixer (Heidolph) in the presence of five small glass beads (.phi. 4 mm) for 1 min. […]
# The following reagents were added to glass tubes in the order and at the final concentrations stated. […] The organic layer was separated by centrifugation at 3000 rpm (15 min) and the absorbance at 532 nm was measured against butanol.
smiles,measurement,value
"CCCC(=O)C1c2cccc(O)c2C(=O)c2c(O)cccc21 [Butantrone, 10-Butyryl-Dithranol]",IC50,4 µM
